Measurements taken from article PMC12214536 (Nature Communications, 2025).

Test system: A. fumigatus OE::sltA
Type: cell-based, Aspergillus fumigatus

Substance | susceptibility of the sltA overexpression strain compared to wild-type | more tolerance of the sltA overexpression strain compared to wild-type [%]
caspofungin | comparable susceptibility to CAS | –
colistin | – | 15
